Residues, ends and D or L forms follow the SMILES beside them.
Species on record: Rattus norvegicus
Test: Relative biological activity in gastric contractile assay of rat (Relative activity is EC(peptide)/EC (compound 4) [EC contraction of each agonist to that of compound 4])
Format: functional, Stomach
`CC(C)C[C@H](NC(=O)[C@H](CC(C)C)NC(=O)[C@H](Cc1ccccc1)NC(=O)[C@@H](N)CO)C(=O)N[C@@H](CCCN=C(N)N)C(N)=O` was tested, and the Relative activity was 1. Molecule `CC(C)C[C@@H]1NC(=O)[C@H](Cc2ccccc2)NC(=O)CNC(=O)[C@H](CCCN=C(N)N)NC(=O)[C@H](CC(C)C)NC1=O` (HELM PEPTIDE1{F.L.L.R.G}$PEPTIDE1,PEPTIDE1,1:R1-5:R2$$$V2.0) has a Relative activity of 390. In the case of `CC(C)C[C@@H]1NC(=O)[C@H](CC(C)C)NC(=O)[C@H](Cc2ccccc2)NC(=O)[C@@H](N)CCCCNC(=O)[C@H](CCCN=C(N)N)NC1=O` (HELM PEPTIDE1{K.F.L.L.R}$PEPTIDE1,PEPTIDE1,1:R3-5:R2$$$V2.0), the Relative activity is reported as 2.4. Work on `CC(C)C[C@@H]1NC(=O)[C@H](Cc2ccccc2)NC(=O)CCCCCNC(=O)[C@H](CCCN=C(N)N)NC(=O)[C@H](CC(C)C)NC1=O` (single isomer, unassigned) yielded a Relative activity greater than 1000.

Source: ChEMBL document CHEMBL1129632, “Synthesis and contractile activities of cyclic thrombin receptor-derived peptide analogues with a Phe-Leu-Leu-Arg motif: importance of the Phe/Arg relative conformation and the primary amino group for activity” (1996)
